These results are taken from EPA's aquatic toxicity sets.

The test system of the series is Tetrahymena pyriformis. The series can be described thus: 48 h IGC50 (-log10 mol/L); higher = more toxic.
For `CC(C)(C)N`, the “48 h IGC50 (-log10 mol/L)” value is 2.1. Then `N#Cc1c(O)ccc(O)c1C#N`, with 2.56; and `O=C1C=CC(=O)c2c(O)ccc(O)c21`, with 5.83. As for `OCCCCCCCCCl`, the “48 h IGC50 (-log10 mol/L)” value came to 3.49. Then `Oc1ccccc1-c1ccccc1O`, with 3.88. The value for `COc1cc(Cl)cc(Cl)c1` was 3.93; that for `c1cn[nH]c1` was 1.29; that for `O=[N+]([O-])c1cccc2cccnc12` was 3.08. With `CCCCOC(=O)c1ccccc1`, the “48 h IGC50 (-log10 mol/L)” value stood at 3.92. The value for `O=[N+]([O-])c1ccc(O)c(O)c1` was 4.17; that for `COC(=O)c1ccc(Br)cc1` was 3.6.

Consider `NCCO`, for which the “48 h IGC50 (-log10 mol/L)” value was 1.11.

With `CCN(CC)C(=O)CCl`, the “48 h IGC50 (-log10 mol/L)” value was 3.52. The value for `Cc1ccncc1C` was 2.5; that for `Cc1cccc(N)c1` was 2.72; that for `N#Cc1ccccc1C#N` was 2.66.

For the compound `CCCCC#CC(=O)OCC`, the “48 h IGC50 (-log10 mol/L)” value is 4.11.

As to `C=CCS(=O)(=O)c1ccccc1`, the “48 h IGC50 (-log10 mol/L)” value is 3.31. Then `CCOc1cc(O)ccc1OC`, with 2.7. On to `CCc1ccc(N)cc1`, for which the “48 h IGC50 (-log10 mol/L)” value is 3.03.

Take `CC(C)=CCO`: the “48 h IGC50 (-log10 mol/L)” value is 1.76. Then `COC(=O)C(C)Br` (stereo unspecified), with 4.18; and `N#Cc1ccccc1N`, with 2.5. The value for `CC(C)CN` was 2.74; that for `COC(=O)c1ccc(C(=O)OC)c([N+](=O)[O-])c1` was 3.43. With `COc1ccc(CO)cc1O`, the “48 h IGC50 (-log10 mol/L)” value amounted to 2.01. For the compound `OCCCc1ccccc1`, the “48 h IGC50 (-log10 mol/L)” value came to 2.79. The value for `O=C(O)c1cc(Cl)ccc1Cl` was 2.54. Then `CC(C)(C)c1cc([N+](=O)[O-])c(O)c([N+](=O)[O-])c1`, with 4.8; and `Oc1c(Cl)cc(F)cc1Cl`, with 3.8; and `C#Cc1ccccc1`, with 2.86.

As to `O=Cc1cc(Cl)cc(Cl)c1O`, the “48 h IGC50 (-log10 mol/L)” value was 4.55. `CC(C)(C)c1cccc(O)c1`: the “48 h IGC50 (-log10 mol/L)” value was found to be 3.74. Then `CCOC(=O)CCC(=O)CCC(=O)OCC`, with 2.36; and `O=[N+]([O-])c1ccc(CCl)cc1`, with 4.18. Then `O=C(CBr)c1cccs1`, with 5.22. The value for `Brc1ccsc1` was 2.96. Turning to `CCCCC(O)CO` (stereo unspecified), the “48 h IGC50 (-log10 mol/L)” value stood at 1.73. As for `CC(C)(C)c1ccc(Br)cc1`, the “48 h IGC50 (-log10 mol/L)” value came to 3.75.

Turning to `O=[N+]([O-])c1cnc(Cl)c([N+](=O)[O-])c1`, the “48 h IGC50 (-log10 mol/L)” value was determined as 5.64.

As for `O=[N+]([O-])c1cc([N+](=O)[O-])c(F)cc1F`, the “48 h IGC50 (-log10 mol/L)” value stood at 5.08.

With `Nc1ccccc1Cl`, the “48 h IGC50 (-log10 mol/L)” value turned out to be 2.83.

For `Cc1cc(O)ccc1[N+](=O)[O-]`, the “48 h IGC50 (-log10 mol/L)” value is 4.73. As to `O=Cc1cc(C(F)(F)F)cc(Cl)c1F`, the “48 h IGC50 (-log10 mol/L)” value came to 4.24.

Consider `CC(O)Cc1ccccc1` (stereo unspecified), for which the “48 h IGC50 (-log10 mol/L)” value amounted to 2.38. The value for `CCc1cccc(O)c1` was 3.29; that for `Oc1c(F)c(F)cc(F)c1F` was 4.17; that for `OCc1ccc(-c2ccccc2)cc1` was 3.92.

Regarding `Cc1ccc(O)cc1[N+](=O)[O-]`, the “48 h IGC50 (-log10 mol/L)” value stood at 3.74. Take `O=[N+]([O-])c1ccc2ccccc2c1O`: the “48 h IGC50 (-log10 mol/L)” value was determined as 4.36. Regarding `CCCC(Br)C(=O)OCC` (stereo unspecified), the “48 h IGC50 (-log10 mol/L)” value is 3.7.

For the compound `CCCCCOc1ccc(C=O)cc1`, the “48 h IGC50 (-log10 mol/L)” value was 4.18.

`COC(=O)CCCCCCCCCCCC(=O)OC`: the “48 h IGC50 (-log10 mol/L)” value was 4.65.

For the compound `CCCCC(=O)OC`, the “48 h IGC50 (-log10 mol/L)” value was determined as 2.15.

Regarding `Cc1ccc(C#N)cc1`, the “48 h IGC50 (-log10 mol/L)” value amounted to 2.9. Then `CNC(C)=O`, with 1.02; and `COCC(C)N` (stereo unspecified), with 2.17.

With `Cc1cccc(N)c1C`, the “48 h IGC50 (-log10 mol/L)” value amounted to 2.57. Consider `CCCCC(=O)c1ccccc1`, for which the “48 h IGC50 (-log10 mol/L)” value was found to be 3.56. As to `CCN(CC)C(C)=O`, the “48 h IGC50 (-log10 mol/L)” value was determined as 1.46. Then `O=C(O)CCBr`, with 2.96; and `CCC(=O)C(=O)CC`, with 2.99; and `O=Cc1ccc([N+](=O)[O-])c(O)c1`, with 3.27. The value for `C=C(C)C(=O)OCC(CC)CCCC` (stereo unspecified) was 4.57; that for `CCCCCCC#CC(=O)O` was 3.71; that for `Cc1cccc(C)c1[N+](=O)[O-]` was 3.3.

With `COc1ccccc1C=O`, the “48 h IGC50 (-log10 mol/L)” value is 3.15. With `O=C(O)c1cc(Cl)ccc1O`, the “48 h IGC50 (-log10 mol/L)” value is 2.6.

For the compound `CC(C)(C)CCO`, the “48 h IGC50 (-log10 mol/L)” value stood at 2.26. Then `N#CCCCCl`, with 2.07; and `C#CCNC`, with 2.02; and `CCCCCCCCNC(N)=S`, with 4.51. Then `Cc1cc(C)c(C)c(O)c1`, with 3.36; and `CC/C=C/CC(=O)O`, with 2.78; and `O=C1CCCC(=O)C1`, with 2.07.

In the case of `N#Cc1ccccc1O`, the “48 h IGC50 (-log10 mol/L)” value is 3.04. Turning to `Oc1ccc(Cl)c(Cl)c1`, the “48 h IGC50 (-log10 mol/L)” value came to 4.75. In the case of `CCCC(=O)OC`, the “48 h IGC50 (-log10 mol/L)” value turned out to be 1.75. For the compound `CN(C)c1ccc(C=O)cc1`, the “48 h IGC50 (-log10 mol/L)” value worked out at 3.23. The value for `CCOS(=O)(=O)OCC` was 2.3. Then `O=[N+]([O-])c1cc(I)c(O)c(I)c1`, with 4.81; and `CCCCCc1cccs1`, with 4.2; and `O=Cc1ccc(Cl)c([N+](=O)[O-])c1`, with 4.19. With `OC(c1ccccc1)c1ccccc1`, the “48 h IGC50 (-log10 mol/L)” value worked out at 3.5. In the case of `N#CC(Cl)(Cl)Cl`, the “48 h IGC50 (-log10 mol/L)” value came to 4.88. The value for `CCCCCCCCCl` was 3.67; that for `Clc1ccc(Br)s1` was 3.75.

Turning to `Oc1ccccc1Br`, the “48 h IGC50 (-log10 mol/L)” value was 3.33.

As for `Cc1cnccn1`, the “48 h IGC50 (-log10 mol/L)” value was 1.91. Then `CCCC#CC(=O)OCC`, with 3.7; and `NC(=O)COc1ccccc1`, with 2.27; and `CCC(C)OC(C)=O` (stereo unspecified), with 2.32. Then `CCCCCC1CCCC(=O)O1` (stereo unspecified), with 2.92. Then `NCCCCCO`, with 1.24.

With `O=[N+]([O-])c1cccc(F)c1`, the “48 h IGC50 (-log10 mol/L)” value was 3.2. Turning to `COc1ccc(C=O)c(Cl)c1O`, the “48 h IGC50 (-log10 mol/L)” value was 3.2.

As to `N#Cc1ccc(Cl)s1`, the “48 h IGC50 (-log10 mol/L)” value was 2.92. Then `C=CC(=O)N(C)C`, with 1.76. Then `N#Cc1ccc(-c2ccccc2)cc1`, with 4.24.

On to `CCOC(=O)C(Br)C(=O)OCC`, for which the “48 h IGC50 (-log10 mol/L)” value was found to be 5.21.

Regarding `CSc1ccccc1`, the “48 h IGC50 (-log10 mol/L)” value is 3.18. Turning to `Cc1c(N)ccc(O)c1C`, the “48 h IGC50 (-log10 mol/L)” value turned out to be 4.44. The value for `CC#CC(C)(O)CCC` (stereo unspecified) was 2.52; that for `CCCCOC(N)=O` was 2.03; that for `COCCCN` was 1.23. Regarding `CCCCC(=O)OCCC`, the “48 h IGC50 (-log10 mol/L)” value was found to be 3.01.

For the compound `Cc1cc(Cl)c([N+](=O)[O-])cc1[N+](=O)[O-]`, the “48 h IGC50 (-log10 mol/L)” value turned out to be 5.33.

For the compound `N#CCCCCBr`, the “48 h IGC50 (-log10 mol/L)” value worked out at 2.79. `Cc1cc(Cl)ncc1[N+](=O)[O-]`: the “48 h IGC50 (-log10 mol/L)” value came to 3.42. Then `CC/C=C/CBr`, with 3.77; and `C=C(C)C(=O)OCCCCCC`, with 4.09; and `NC(=O)c1cc(Cl)ccc1[N+](=O)[O-]`, with 2.68. The value for `Cc1cccc(C)c1N` was 2.57; that for `CC=CC(C)O` (stereo unspecified) was 1.6; that for `N#CCc1ccc(Cl)cc1` was 3.66.

For the compound `O=[N+]([O-])c1ccc(O)c(F)c1`, the “48 h IGC50 (-log10 mol/L)” value came to 4.07. As to `CCC[N+](=O)[O-]`, the “48 h IGC50 (-log10 mol/L)” value was determined as 2.01.

In the case of `CCCCCCC#N`, the “48 h IGC50 (-log10 mol/L)” value came out at 2.76. `NC(=O)c1ccc(Cl)cc1`: the “48 h IGC50 (-log10 mol/L)” value turned out to be 3.09.

For `CCCCCCCC(O)CCCCC` (stereo unspecified), the “48 h IGC50 (-log10 mol/L)” value was determined as 5.24. The value for `CCC(C)CN` (stereo unspecified) was 2.52; that for `O=[N+]([O-])c1cc(O)ccc1Cl` was 4.27. Turning to `CCCCCCCN`, the “48 h IGC50 (-log10 mol/L)” value is 3.21. Regarding `C#CCN(C)C`, the “48 h IGC50 (-log10 mol/L)” value worked out at 1.85. Turning to `CCCC(O)Cc1ccccc1` (stereo unspecified), the “48 h IGC50 (-log10 mol/L)” value stood at 3.16. The value for `N#Cc1cccs1` was 2.24; that for `Cc1cc(C)c(O)c(C(C)(C)C)c1` was 4.16. The value for `Fc1ccc(-c2ccccc2)cc1` was 3.53; that for `O=Cc1ccc(O)cc1Cl` was 3.89; that for `CCCCCCOc1ccc(O)cc1` was 4.64.

`CCOC(=O)C=C(OCC)OCC`: the “48 h IGC50 (-log10 mol/L)” value amounted to 2.35.

As to `Clc1cc(Cl)cc(Cl)c1`, the “48 h IGC50 (-log10 mol/L)” value amounted to 3.87. The value for `Cc1ccc(CCN)cc1` was 2.96. Regarding `O=C/C(Cl)=C/c1ccccc1`, the “48 h IGC50 (-log10 mol/L)” value came to 4.73. The value for `BrCCCc1ccccc1` was 3.69; that for `CCOC(=O)c1ccc(OC)cc1` was 3.77.
